The values below come from patent US20170157135A1 (Novogen Limited, priority 2013, published 2017).

For one experiment, the system named is SK-Mel-28 melanoma cells. Briefly: Anti-proliferative assay (cell-titre luminescent), SK-Mel-28. In kind it is cell-based. Particulars: Homo sapiens; SK-Mel-28, 72 hours, luminescence. The procedure, abridged:
(§1)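 EC50 values reflect a 72-hour compound exposure of adherent cells, cultured 24 h beforehand at 37° C and 5% CO2, with viability read by a 30-minute cell-titre luminescent step and expressed relative to vehicle-alone controls.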

Experiment [1] concerns DU145 prostate cancer cells. Nature of the experiment: Anti-proliferative assay (cell-titre luminescent), DU145. In kind it is cell-based. Particulars: Homo sapiens, DU-145; DU145, 72 hours, luminescence. The procedure, abridged:
as §1

The subject of experiment [2] is PC3 prostate cancer cells. Briefly: Anti-proliferative assay (cell-titre luminescent), PC3. In kind it is cell-based. Particulars: PC3, 72 hours, luminescence. The procedure, abridged: as §1
The next experiment has as its system A549 lung (NSLC) cells. Briefly: Anti-proliferative assay (cell-titre luminescent), A549. It is filed as cell-based. Particulars: Homo sapiens; A549, 72 hours, luminescence. The gist of the method: as §1
Experiment [3] deals with MDA-MB-231 breast cancer cells. Briefly: Anti-proliferative assay (cell-titre luminescent), MDA-MB-231. It is filed as cell-based. Particulars: Homo sapiens; MDA-MB-231, 72 hours, luminescence. The gist of the method:
as §1

The next experiment addresses Tm5NM1 (Homo sapiens, UniProt P06753). Briefly: Pyrene-based actin filament depolymerization assay, Tm5NM1-containing actin filaments. It is filed as biochemical. Particulars: 50 μM compound, p=0.1 vs F-actin alone. The method, then:
FIG. 1: Impact of compound 2026 on Tm5NM1-regulated actin-filament depolymerization kinetics. (A and C) Depolymerization time course of 6 μM actin filaments (35% pyrene labelled) diluted 12-fold into F-actin buffer (100 mM NaCl, 10 mM Tris-HCl pH 7.0, 2 mM MgCl2, 1 mM EGTA, 0.2 mM CaCl2, 0.2 mM ATP, 0.5 mM DTT, 0.01% (v/v) NaN3) in the presence or absence of saturating amounts (10 μM) of Tm5NM1. Final concentration of F-actin and Tm5NM1 was 0.5 μM and 0.83 μM respectively. Tm5NM1 was pre-incubated with 50 μM compound 2026 or 1% (v/v) DMSO prior to mixing with F-actin. Depolymerization data is normalized to the initial fluorescence value. (B and D) Initial rates (V0) of depolymerization for F-actin alone or Tm5NM1/F-actin, in the presence of compound 2026. Initial rates of depolymerization were determined from the first 3600 s, fitted to a linear regression model. Data represents mean±SEM, averaged from n>6 replicates.
A brief overview and rationale of the assay is as follows: to promote depolymerization, pyrene-labelled actin filaments were diluted below the critical concentration of the pointed end (0.5 μM, as defined by Pollard et al., 1986). A decline in fluorescence was measured over time as actin monomers dissociate. […]
The depolymerization of F-actin alone and F-actin-coated with Tm5NM1 was then measured in the presence of compound and initial rates of depolymerization were compared. […]

Experiment [4] relates to SK-N-SH neuroblastoma cells. Briefly: Anti-proliferative assay (cell-titre luminescent), SK-N-SH. It is filed as cell-based. Particulars: Homo sapiens, 72 hours, luminescence. The gist of the method:
as §1

The test system of experiment [5] is CaCo2 colorectal cancer cells. Briefly: Anti-proliferative assay (cell-titre luminescent), CaCo2. In kind it is cell-based. As to conditions: Homo sapiens, Caco-2; CaCo2, 72 hours, luminescence. The gist of the method: as §1

Sequence of Tm5NM1 (P06753 1-248 isoform P06753-2): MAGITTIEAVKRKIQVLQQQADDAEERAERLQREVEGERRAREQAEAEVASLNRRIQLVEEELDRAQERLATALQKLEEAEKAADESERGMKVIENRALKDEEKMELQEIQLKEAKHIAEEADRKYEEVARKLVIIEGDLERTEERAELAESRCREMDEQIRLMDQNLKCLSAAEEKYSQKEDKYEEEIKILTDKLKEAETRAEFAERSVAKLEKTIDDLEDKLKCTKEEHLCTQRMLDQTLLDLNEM

As a reminder, the IC50 is the point on the concentration scale where inhibition reaches its midpoint. Higher therefore signals weaker potency in that assay. For the molecule `CCN(CC)CCCn1c(C)c(/C=C/C(=O)N2CCN(CCc3cccc(F)c3)CC2)c2cc(OC)ccc21` [Compound 2026, (E)-3-(1-(3-(diethylamino)propyl)-5-methoxy-2-methyl-1H-indol-3-yl)-1-(4-(3-fluorophenethyl)piperazin-1-yl)prop-2-en-1-one], the IC50 in the experiment on SK-Mel-28 melanoma cells was determined as 1.7 µM; in experiment [1] it was 9.8 µM; in experiment [2] it was 5.2 µM; in the experiment with A549 lung (NSLC) cells it was 3.4 µM; in experiment [3] it was 4.3 µM; in experiment [4], 2.5 µM. The molecule further showed an IC50 in experiment [5] of 4.1 µM. For the same molecule, the “Effect on Tm5NM1 function (protection of actin filaments from depolymerization)” value on Tm5NM1 was “interacts with and impairs Tm5NM1 function”.
